Legend:
[1] = target: T1, human sphingosine-1-phosphate receptor 1 (S1P1) (Homo sapiens (Human), UniProt P21453); assay: Inhibition of cAMP production (HTRF cAMP HiRange), S1P1 CHO-K1 cells; assay type: cell-based; details: for Emax: CHO-K1, efficacy (SPAN) normalized to fingolimod, read-out: hS1P1 cAMP SPAN
Protocol: (§1) Stable clonal Chinese hamster ovary K1 (CHO-K1) cells co-expressing EA-β-arrestin2 and the human sphingosine-1-phosphate receptor 1 (NM_001400, S1P1) with a C-terminal Prolink™ tag were purchased from DiscoverX corporation (Cat #: 93-0207C2).
(§2) Cell lines were cultured in AssayComplete™ Media 6 (DiscoverX Corporation, Cat #: 920018GF2) at 37° C. and 5% CO2 in a humidified CO2 and temperature-controlled incubator. To begin assay plating, cells were washed with dulbecco's phosphate buffered saline (CellGro, Cat #: 21-031-CV) and lifted from the culturing flask by incubation (37° C., 5 min) with CellStripper (Cellgro, Cat #: 25-056-CI). […] Plated cells were incubated overnight at 37° C. and 5% CO2 in a humidified CO2 and temperature-controlled incubator. Detecting Inhibition of cAMP Production
Agonist-promoted G-protein responses were determined by measuring changes in intracellular cAMP using the HTRF® cAMP HiRange kit (CisBio, Cat #: 62AM6PEJ) based on time-resolved fluorescence resonance energy transfer (TR-FRET) technology. […] Following a 30-minute incubation at 37° C. and 5% CO2 in a humidified CO2 and temperature-controlled incubator, the components of the cAMP HiRange kit were added as per the manufacturer's instructions. After an hour incubation at room temperature, plates were analyzed by a BMG PheraStar microplate reader.
(§3) The tables below include the efficacy of the compound as compared to a positive control, referred to as “SPAN”. These values are normalized to fingolimod, a known agonist of the sphingosine-1-phosphate 1 receptor. The tables also include potency values (pEC50) for modulating discrete receptor-mediated activities (inhibition of cAMP production and […] recruitment).
Target sequence in this assay (P21453 whole entry, looked up): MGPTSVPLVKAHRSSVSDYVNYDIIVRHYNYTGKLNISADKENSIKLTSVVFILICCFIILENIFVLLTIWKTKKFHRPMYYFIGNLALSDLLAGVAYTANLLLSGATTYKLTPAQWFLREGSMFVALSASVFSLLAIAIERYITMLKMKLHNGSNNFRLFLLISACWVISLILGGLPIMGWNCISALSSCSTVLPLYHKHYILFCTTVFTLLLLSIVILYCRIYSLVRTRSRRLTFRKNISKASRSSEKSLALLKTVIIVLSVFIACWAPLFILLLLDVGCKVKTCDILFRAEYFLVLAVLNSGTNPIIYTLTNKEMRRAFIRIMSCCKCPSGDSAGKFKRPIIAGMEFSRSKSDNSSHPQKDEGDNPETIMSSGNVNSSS

[2] = target: T1, human sphingosine-1-phosphate receptor 1 (S1P1); assay: β-Arrestin2 recruitment assay (PathHunter), S1P1 CHO-K1 cells; assay type: cell-based; details: for Emax: CHO-K1, efficacy (SPAN) normalized to fingolimod, read-out: hS1P1 B-arrestin2 SPAN
Protocol: as §1, §2
Target sequence in this assay (P21453 whole entry, looked up): as above
Target sequence in this assay (P32121 whole entry partner, looked up): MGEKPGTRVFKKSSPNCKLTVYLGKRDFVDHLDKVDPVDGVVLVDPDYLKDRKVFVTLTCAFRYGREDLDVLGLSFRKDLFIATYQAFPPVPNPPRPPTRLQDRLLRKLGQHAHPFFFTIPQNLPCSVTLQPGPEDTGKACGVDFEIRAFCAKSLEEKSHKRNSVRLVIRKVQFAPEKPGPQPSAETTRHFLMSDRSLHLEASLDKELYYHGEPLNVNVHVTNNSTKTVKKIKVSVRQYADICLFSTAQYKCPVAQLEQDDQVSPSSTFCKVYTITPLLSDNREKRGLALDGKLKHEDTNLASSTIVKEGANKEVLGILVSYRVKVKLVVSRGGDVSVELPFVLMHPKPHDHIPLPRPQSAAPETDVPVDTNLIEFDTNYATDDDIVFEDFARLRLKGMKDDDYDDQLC
Agonist-promoted β-arrestin2 recruitment to the sphingosine-1-phosphate 1 receptor was determined using the β-arrestin PathHunter®) Detection kit (DiscoverX Corporation, Cat #: 93-0001). […] In cells that stably express these fusion proteins, stimulation with a cognate agonist results in the interaction of […] and the Prolink™-tagged GPCR. This allows the complementation of the two β-galactosidase fragments and results in the formation of a functional enzyme with β-galactosidase activity. […] Following a 60 minute incubation at 37° C. and 5% CO2 in a humidified CO2 and temperature-controlled incubator, the components of the β-arrestin PathHunter® Detection kit were added as per the manufacturer's instructions. After an hour incubation at room temperature, plates were analyzed by a BMG PheraStar microplate reader.
as §3

[3] = inhibition of cAMP production, S1P1 CHO-K1 cells
[4] = β-arrestin2 recruitment, S1P1 CHO-K1 cells

Row | Structure (SMILES) | hS1P1 cAMP pEC50 [1, 3] | hS1P1 B-arrestin2 pEC50 [2, 4] | Emax [1] | Emax [2] | EC50 ([1]; inhibition of cAMP production, S1P1 CHO-K1 cells, read-out: hS1P1 cAMP pEC50 (converted)) | EC50 ([2]; β-arrestin2 recruitment, S1P1 CHO-K1 cells, read-out: hS1P1 B-arrestin2 pEC50 (converted))
1 | CCC1(CC)CC(=O)c2cc(-c3nc(-c4ccc5c(c4)nnn5C(C)C)ns3)ccc2O1 [Compound 29, 2,2-diethyl-6-(3-(1-isopropyl-1H-benzo[d][1,2,3]triazol-5-yl)-1,2,4-thiadiazol-5-yl)chroman-4-one] | <6.5 | <5 |  |  |  | 
2 | COc1cccc(-c2nc(-c3ccc4c(c3)nnn4C3CCCC3)no2)c1 [Compound 130, 3-(1-cyclopentyl-1H-benzo[d][1,2,3]triazol-5-yl)-5-(3-methoxyphenyl)-1,2,4-oxadiazole] | <6.5 | <5 | < 75% | < 75% |  | 
3 | CC(C)n1nnc2cc(-c3noc(-c4ccccc4OC(F)(F)F)n3)ccc21 [Compound 240, 3-(1-isopropyl-1H-benzo[d][1,2,3]triazol-5-yl)-5-(2-(trifluoromethoxy)phenyl)-1,2,4-oxadiazole] | <6.5 | <5 | > 75% | > 75% |  | 
4 | Brc1ccccc1-c1nc(-c2ccc3c(c2)nnn3Cc2ccncc2)no1 [Compound 48, 5-(2-bromophenyl)-3-(1-(pyridin-4-ylmethyl)-1H-benzo[d][1,2,3]triazol-5-yl)-1,2,4-oxadiazole] | <6.5 | <5 |  |  |  | 
5 | CC(C)n1nnc2cc(-c3nc(-c4ccccc4Cl)co3)ccc21 [Compound 163] |  |  | > 75% | > 75% |  | 
6 | CC(C)n1ccc2cc(-c3nc(-c4ccccc4Cl)no3)ccc21 [Compound 320, 3-(2-chlorophenyl)-5-(1-isopropyl-1H-indol-5-yl)-1,2,4-oxadiazole] | >6.5 | >5 | > 75% | > 75% |  | 
7 | CCc1ccccc1-c1nc(-c2ccc3c(c2)nnn3C(C)(C)CO)no1 [Compound 624, 2-(5-(5-(2-ethylphenyl)-1,2,4-oxadiazol-3-yl)-1H-benzo[d][1,2,3]triazol-1-yl)-2-methylpropan-1-ol] | <6.5 | <5 | < 75% | > 75% |  | 
8 | N#Cc1cc(-c2nc(-c3ccc4sc(N)nc4c3)no2)ccc1NCC1CC1 [Compound 440, 5-(3-(2-aminobenzo[d]thiazol-5-yl)-1,2,4-oxadiazol-5-yl)-2-((cyclopropylmethyl)amino)benzonitrile] | >6.5 | >5 | > 75% | > 75% |  | 
9 | CCC1(CC)CC(=O)c2cc(-c3nc(-c4ccc(NC)cc4)no3)ccc2O1 [Compound 153, 2,2-diethyl-6-(3-(4-(methylamino)phenyl)-1,2,4-oxadiazol-5-yl)chroman-4-one] | <6.5 | >5 | > 75% | < 75% |  | 
10 | CCC1(CC)CC(=O)c2cc(-c3nnc(-c4cccnc4)s3)ccc2O1 [Compound 104, 2,2-diethyl-6-(5-(pyridin-3-yl)-1,3,4-thiadiazol-2-yl)chroman-4-one] | >6.5 | <5 | > 75% | > 75% |  | 
11 | CCC1(CC)CC(=O)c2cc(-c3nc(-c4cccc(OC)c4)no3)ccc2O1 [Compound 71, 2,2-diethyl-6-(3-(3-methoxyphenyl)-1,2,4-oxadiazol-5-yl)chroman-4-one] | <6.5 | <5 | > 75% | < 75% |  | 
12 | CC(C)Nc1ccc(-c2nnc(-c3ccc4c(c3)CCC(=O)N4)o2)cc1C#N [Compound 473, 5-[5-(2-oxo-1,2,3,4-tetrahydroquinolin-6-yl)-1,3,4-oxadiazol-2-yl]-2-[(propan-2-yl)amino]benzonitrile] | >6.5 | >5 |  |  |  | 
13 | CC(C)n1nnc2cc(-c3nc(-c4ccc5nncn5c4)no3)ccc21 [Compound 128, 1-(propan-2-yl)-5-(3-{[1,2,4]triazolo[4,3-a]pyridin-6-yl}-1,2,4-oxadiazol-5-yl)-1H-1,2,3-benzotriazole] | <6.5 | <5 | < 75% | < 75% |  | 
14 | COc1cccc(-c2nc(-c3ccc4c(ccn4C(C)C)c3)no2)c1 [Compound 392, 3-(1-isopropyl-1H-indol-5-yl)-5-(3-methoxyphenyl)-1,2,4-oxadiazole] | <6.5 | <5 |  |  |  | 
15 | Cc1ccccc1-c1noc(-c2ccc3c(c2)nnn3C2CCOCC2)n1 [Compound 95, 5-[3-(2-methylphenyl)-1,2,4-oxadiazol-5-yl]-1-(oxan-4-yl)-1H-1,2,3-benzotriazole] | <6.5 | <5 | < 75% | < 75% |  | 
16 | CCC1(CC)CC(=O)c2cc(-c3noc(-c4cccnc4)n3)ccc2O1 [Compound 559, 2,2-diethyl-6-(5-(pyridin-3-yl)-1,2,4-oxadiazol-3-yl)chroman-4-one] | >6.5 | >5 |  |  |  | 
17 | CCC1(CC)CC(=O)c2cc(-c3nnc(-c4ccc5c(c4)nnn5C(C)C)o3)ccc2O1 [Compound 223, 2,2-diethyl-6-(5-(1-isopropyl-1H-benzo[d][1,2,3]triazol-5-yl)-1,3,4-oxadiazol-2-yl)chroman-4-one] | <6.5 | <5 | < 75% | < 75% |  | 
18 | N#Cc1cc(-c2nc(-c3ccc4c(c3)CCC(=O)N4)no2)ccc1N [Compound 345, 2-amino-5-[3-(2-oxo-1,2,3,4-tetrahydroquinolin-6-yl)-1,2,4-oxadiazol-5-yl]benzonitrile] | <6.5 | <5 | < 75% | < 75% |  | 
19 | c1cc(-c2noc(-c3ccc4c(c3)nnn4C3CCCC3)n2)ccn1 [Compound 174, 1-cyclopentyl-5-[3-(pyridin-4-yl)-1,2,4-oxadiazol-5-yl]-1H-1,2,3-benzotriazole] | >6.5 | <5 | > 75% | > 75% |  | 
20 | CCCn1nnc2cc(-c3nc(-c4cc(C)cc(C)c4)no3)ccc21 [Compound 76, 5-[3-(3,5-dimethylphenyl)-1,2,4-oxadiazol-5-yl]-1-propyl-1H-1,2,3-benzotriazole] | <6.5 | <5 | < 75% | < 75% |  | 
21 | CCC1(CC)CC(=O)c2cc(-c3nc(-c4ccccc4OC)ns3)ccc2O1 [Compound 257, 2,2-diethyl-6-(3-(2-methoxyphenyl)-1,2,4-thiadiazol-5-yl)chroman-4-one] | <6.5 | <5 |  |  |  | 
22 | O=C(O)Cn1nnc2cc(-c3noc(-c4ccccc4Br)n3)ccc21 [Compound 195, 2-(5-(5-(2-bromophenyl)-1,2,4-oxadiazol-3-yl)-1H-benzo[d][1,2,3]triazol-1-yl)acetic acid] |  |  | < 75% | < 75% | > 0.316 µM | > 10 µM
23 | CCC1(CC)CC(=O)c2cc(-c3nc(-c4ccc5sc(N)nc5c4)no3)ccc2O1 [Compound 446, 6-(3-(2-aminobenzo[d]thiazol-5-yl)-1,2,4-oxadiazol-5-yl)-2,2-diethylchroman-4-one] | <6.5 | <5 | < 75% | < 75% |  | 
24 | Fc1ccc(-c2noc(-c3ccc4c(c3)nnn4C3CCCC3)n2)cc1 [Compound 232, 1-cyclopentyl-5-[3-(4-fluorophenyl)-1,2,4-oxadiazol-5-yl]-1H-1,2,3-benzotriazole] | <6.5 | <5 | < 75% | < 75% |  | 
25 | COc1cccc(-c2coc(-c3ccc4c(c3)nnn4C(C)C)n2)c1 [Compound 385, 5-[4-(3-methoxyphenyl)-1,3-oxazol-2-yl]-1-(propan-2-yl)-1H-1,2,3-benzotriazole] | <6.5 | <5 | < 75% | > 75% |  | 
